Data on 4 compounds can be found in patent US8198280B2, “N-hydroxyamide derivatives and use thereof” (Merck Serono SA, priority 2005, dated 2012).

For assay [1], the target named is T1, collagenase (MMP-1) (Homo sapiens, UniProt P03956).
T1 sequence (P03956 100-469): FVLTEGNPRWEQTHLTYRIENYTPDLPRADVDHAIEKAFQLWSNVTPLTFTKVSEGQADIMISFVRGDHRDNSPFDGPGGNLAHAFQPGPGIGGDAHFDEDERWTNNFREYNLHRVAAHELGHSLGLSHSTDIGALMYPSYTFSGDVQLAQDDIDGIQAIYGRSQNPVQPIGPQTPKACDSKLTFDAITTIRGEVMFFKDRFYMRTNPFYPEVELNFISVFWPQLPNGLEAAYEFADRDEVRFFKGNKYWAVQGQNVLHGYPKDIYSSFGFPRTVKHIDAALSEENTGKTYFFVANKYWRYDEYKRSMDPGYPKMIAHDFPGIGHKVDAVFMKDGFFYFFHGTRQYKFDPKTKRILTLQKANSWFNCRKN
In words: MMP-1 enzyme inhibition assay (coumarin-labelled peptide substrate). The settings on record: fluorogenic substrate McaPLGLDpaAR, 37° C., 2 hours. The format is biochemical. As to the method: (§1) Compounds of the invention were tested for inhibitory activity against 92 kDa gelatinase (MMP-9) in an assay using a coumarin-labeled peptide substrate, (7-methoxycoumarin-4-yl)acetyl-Pro-Leu-Gly-Leu-(3-[2,4-dinitrophenyl]-L-2,3-diaminopropionyl)-Ala-Arg-NH2 (McaPLGLDpaAR) (Knight et al, 1992, FEBS Lett., 263-266).
(§2) Stock solutions were made up as follows: Assay Butter: 100 mM Tris-HCl pH 7.6 containing 100 mM NaCl, 10 mM CaCl2, and 0.05% Brij 35.
(§3) Substrate: 0.4 mM McaPLGLDpaAR (from Bachem) (0.437 mg/ml) stock solution in 100% DMSO (stored at −20° C.). Dilute to 8 μM in assay butter.
(§4) Enzyme: Recombinant human 92 kDa gelatinase (MMP-9; APMA (4-aminophenyl mercuric acetate)-activated if necessary) appropriately diluted in assay butter.
(§5) Test Compounds were prepared initially as 10 mM compound solution in 100% DMSO, diluted to 1 mM in 100% DMSO, then serially diluted 3-fold in 100% DMSO across columns 1-10 of a 96-well microtitre plate Assay concentration range, 100 μM (column 1) to 5.1 nM (column 10).
(§6) The assay was performed in a total volume of 100 μL per well in 96-well microtitre plates. Activated enzyme (20 μL) was added to the wells followed by 20 μL of assay butter. Appropriate concentrations of test compounds dissolved in 10 μL of DMSO were then added followed by 50 μL of McaPLGLDpaAR ([…], prepared by dilution of DMSO stock in assay butter). For each as say ten concentrations of test compound were examined in duplicate. Control wells lack either enzyme or test compound. The reactions were incubated at 37° C. for 2 hours. The fluorescence at 405 nm was measured immediately with an SLT Fluostar fluorometer (SLT Labinstruments GmbH, Grodig, Austria) using 320 nm excitation, without stopping the reaction.
(§7) The effect of the test compound was determined from the dose response curve generated by the 10 duplicate concentrations of inhibitor. The IC50 (the concentration of compound required to give a 50% decrease in enzyme activity) was obtained by fitting data to the equation, Y=a+((b−a)/(1+(c/X)^d)). (Y=inhibition achieved for a particular dose; X=the dose in nM; a=minimum y or zero % inhibition; b=maximum y or 100% inhibition; c=is the IC50; d=is the slope). The result was rounded to one significant figure.
Compounds of the invention were tested for inhibitory activity against collagenase (MMP-1) in an assay using a coumarin-labelled peptide substrate, (7-methoxycoumarin-4-yl)acetyl-Pro-Leu-Gly-Leu-(3-[2,4-dinitrophenyl]-L-2,3diaminopropionyl)-Ala-Arg-NH2 (Mca PLGLDpaAR) (Knight et al, 1992, above). The protocol for this assay was as described for the MMP-9 assay above.

Assay [2] addresses metalloelastase (MMP-12) (Homo sapiens, UniProt P39900). In words: MMP-12 enzyme inhibition assay (coumarin-labelled peptide substrate). The format is biochemical. The settings on record: fluorogenic substrate McaPLGLDpaAR, 37° C., 2 hours. The procedure: as §1, §2, §3, §4, §5, §6, §7
Compounds of the invention were tested for inhibitory activity against metalloelastase (MMP-12) in an assay using a coumarin-labelled peptide substrate, (7-methoxycoumarin-4-yl)acetyl-Pro-Leu-Gly-Leu-(3-[2,4dinitrophenyl]-L-2,3-diaminopropionyl)-Ala-Arg-NH2 (McaPLGLDpaAR) (Knight et al, 1992, above). The protocol for this assay was as described for the MMP-9 assay above.

For assay [3], the system named is IL-2-induced peritoneal recruitment of lymphocytes. In words: IL-2-induced peritoneal recruitment of lymphocytes. The settings on record: mice, 1 mg/kg po, 15 min prior to IL-2; cells collected 24 h after IL-2. The format is in vivo, C3H/HEN mice. As to the method: Administration of IL-2 intraperitoneally causes migration of lymphocytes into the intraperitoneal cavity. This is a model for the cellular migration that occurs during inflammation.
C3H/HEN mice (Elevage Janvier, France) are intraperitoneally injected with IL-2 (Serono Pharmaceutical Research Institute, 20 μg/kg, in saline).
Compounds of the invention are suspended in 0.5% carboxymethylcellulose (CMC)/0.25% tween-20 and are administered by s.c. or p.o. route (10 ml/kg) 15 min prior to administration of IL-2.
Twenty-four hours after administration of IL-2, peritoneal white blood cells are collected by 3 successive lavages of the peritoneal cavity with 5 ml phosphate buffered saline (PBS)-1 mM EDTA (+4° C.). The suspension is centrifuged (1700 g×10 min at +4° C.). The resulting pellet is suspended in 1 ml PBS-1 mM EDTA.
Lymphocytes are identified and counted using a Beckman/Coulter counter.
The animals are divided into 6 groups (6 mice each group):
Group 1: (baseline) receives 0.5% CMC/0.25% tween-20 (vehicle of compound of the invention) and saline (vehicle of IL-2);
Group 2: (control IL-2) receives 0.5% CMC/0.25% tween-20 and injection of IL-2;
Group 3: Experimental group (Compound of the invention Dose 1) receives a compound of the invention and injection of IL-2; […]
Inhibition of lymphocyte recruitment is calculated as follows: […]

Sequence of metalloelastase (MMP-12) (P39900 106-470): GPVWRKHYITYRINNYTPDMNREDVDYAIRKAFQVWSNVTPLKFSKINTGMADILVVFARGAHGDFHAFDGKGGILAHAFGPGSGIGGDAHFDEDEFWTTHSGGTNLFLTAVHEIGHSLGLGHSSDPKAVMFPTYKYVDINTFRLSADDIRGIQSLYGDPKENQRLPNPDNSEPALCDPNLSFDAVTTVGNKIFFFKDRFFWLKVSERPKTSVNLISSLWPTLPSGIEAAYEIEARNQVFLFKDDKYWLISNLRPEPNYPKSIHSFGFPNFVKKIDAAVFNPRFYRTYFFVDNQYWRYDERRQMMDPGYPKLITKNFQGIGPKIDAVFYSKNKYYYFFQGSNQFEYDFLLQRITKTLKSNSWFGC

As for `C[C@@H]1CN(c2ccc(-c3ccccc3)cc2)CCN1C(=O)C[C@H](O)C(=O)NO` [Example 4, (2S)-4-[(2R)-4-biphenyl-4-yl-2-methylpiperazin-1-yl]-N,2-dihydroxy-4-oxobutanamide], the IC50 (usually the point on the concentration scale where inhibition reaches its midpoint) in assay [1] is > 5000 nM; in assay [2], 5 nM.
Regarding `O=C(NO)[C@@H](O)CC(=O)N1CCN(c2ccc(F)cc2)CC1` [Example 2, (2S)-4-[4-(4-fluorophenyl)piperazin-1-yl]-N,2-dihydroxy-4-oxobutanamide], the IC50 in assay [1] was > 5000 nM; in assay [2], 58 nM. Moreover, in assay [3], the “% inhibition of IL-2-induced peritoneal recruitment of lymphocytes” value is recorded as 51%.
With `O=C(NO)[C@H](O)CC(=O)N1CCN(c2ccc(F)cc2)CC1` [Example 1, (2R)-4-[4-(4-fluorophenyl)piperazin-1-yl]-N,2-dihydroxy-4-oxo butanamide], the values for the IC50 in assay [1] and in assay [2] were > 5000 nM and 264 nM, respectively.
Regarding `C[C@@H]1CN(c2ccc(OC(F)(F)F)cc2)CCN1C(=O)C[C@H](O)C(=O)NO` [Example 3, (2S)—N,2-dihydroxy-4-{(2R)-2-methyl-4-[4-(trifluoromethoxy)phenyl]piperazin-1-yl}-4-oxobutanamide], the IC50 in assay [1] was > 5000 nM; in assay [2], 5 nM.
